Measurements as given in patent US7795215B2, “MNTF peptides and compositions and methods of use” (Genervon Biopharmaceuticals LLC, priority 2003, dated 2010).
Entries after “also recorded” stand apart in the source; their conditions may differ. Where no end group is shown, it is not given here.

Assays:
[1] = system: VSC4.1 cells, a motor neuron/neuroblastoma cell hybrid; experiment: VSC4.1 cell proliferation assay (BrdU); assay type: cell-based; conditions: for Biological Function / OD (optimal dose): VSC4.1 proliferation; for maximal increase in cell proliferation: % increase over control; for stimulation of VSC4.1 cell proliferation over controls: second round of experiments
Procedure: Studies of proliferation were performed in 96 well plates utilizing a cell proliferation assay kit from Roche Diagnostics GmbH (Mannheim, Germany). VSC4.1 cells, a motor neuron/neuroblastoma cell hybrid, were cultured in DMEM with 2% FBS containing either no MNTF or a dose range of MNTF from 10^−8 to 10^−5 g/ml. Each treatment was applied in triplicate wells. The cells were cultured for 21 hours and 5-bromo-2′-deoxyuridine (BrdU) from the assay kit was added to each well. After BrdU labeling for 3 hours, the cells were washed, fixed and dried. The cells were then fixed and the DNA denatured to improve access for the subsequent antibody binding. POD-labeled mouse monoclonal anti-BrdU antibody from the assay kit was applied for 2 hours, followed by a wash. The assay was quantitated by adding the colorimetric assay solution (tetramethyl benzidine) and reading at 450 nm on a Wallac Vector 2 plate reader. Cells in the treatment groups were quantitated by comparing to wells plated with a gradient of cells from 0 to 20,000 cells/well on the same plate. Data is expressed as % of control to allow for variability from plate to plate.
Additional cell proliferation assays, conducted essentially as described above, were performed to compare the effects of several GLP grade MNTF peptides.
Further cell proliferation studies were performed, essentially as described above, to test the response of the motor neuron/neuroblastoma cells to three new preparations of MNTF. The MNTF preparations utilized for these assays were: […]

rat femoral nerve = experiment: Femoral nerve model, MNTF pump experiments (Preferential Motor Reinnervation); assay type: in vivo
Procedure: The specificity of motor axon regeneration was investigated in the rat femoral nerve. Proximally, at the site of nerve transection and suture, axons that contribute to both cutaneous and muscle branches intermingle throughout the nerve. As these axons regenerate, they have equal access to neighboring motor and sensory Schwann cell tubes in the distal nerve stump. This assures an element of “choice” at the axonal level. Distally, where the specificity of regeneration is assessed, axons are segregated into terminal cutaneous and muscle branches. Motor axons are normally found only in the muscle branch, so any motor reinnervation of the cutaneous branch represents a pathfinding failure. The specificity of axon regeneration is evaluated by simultaneous application of horseradish peroxidase (HRP) to one distal femoral branch and fluoro-gold (FG) to the other. Motor-axon regeneration is random at 3 weeks, but the number of correct projections to muscle increases dramatically at later times. Many neurons initially contain both tracers, and thus project collaterals to both cutaneous and muscle branches. The number of these double-labeled neurons decreases with time. Motor axon collaterals are thus pruned from the cutaneous branch, increasing the number of correct projections to muscle at the expense of double-labeled neurons. A specific interaction thus occurs between regenerating motor axons and muscle and/or muscle nerve that we have termed Preferential Motor Reinnervation (PMR).
In preliminary experiments we attempted to modify motor axon regeneration in the femoral nerve by pumping MNTF 33mer at 10^−4 M onto the repair site, using an Alzet osmotic pump which discharges for at least 2 weeks. The output of the pump was sewn to muscle adjacent to the nerve repair, so that the nerve wound would be continuously bathed with the factor. Reinnervation of the distal femoral cutaneous and muscle branches was quantified with tracers as described above.
In a follow-up experiment MNTF 33mer was administered to eight transected and sutured rat femoral nerves at 10^−4 M, essentially as described above. Controls were a group of six nerves that underwent routine suture with pumps delivering saline but no MNTF. A mean of 100 motoneurons projected correctly in the six controls, whereas a mean of 87 motoneurons projected incorrectly to skin.
To determine if a truncated MNTF peptide could be substituted for MNTF 33mer, subsequent experiments were performed, essentially as described above, using the MNTF 6mer FSRYAR, at 10^−4 M (n=8), 10^−5 M (n=8) and 10^−6 M (n=8), with a total of 22 saline controls for comparison. […] Thus the 6mer is capable of promoting selective reinnervation of target muscles in a manner similar to the MNTF1 33mer.

[2] = earliest studies, FIG. 2, listed as GLP grade MNTF 33mer
[3] = earliest studies, FIG. 2, listed as MNTF 33mer (research grade)
[4] = second set, FIG. 3, highest dose
[5] = follow-up experiment, 10^−4 M, eight nerves, saline pump controls
[6] = preliminary experiments, 10^−4 M by Alzet osmotic pump, three weeks, three animals
[7] = 10^−4 M, 10^−5 M and 10^−6 M, FIG. 5, vs saline controls

Substance | Biological Function ([1]; assay set Aug. 4, 2003) | OD (optimal dose) ([1]; assay set Aug. 4, 2003) | Biological Function ([1]; assay set Mar. 28, 2003) | Biological Function ([1]; assay set Oct. 27, 2002) | effect on proliferation of motor neuron/neuroblastoma cells (summary in description) ([1]; in vitro) | relative effectiveness in proliferation assay (words) ([1]; third set, FIG. 4) | OD (optimal dose) ([1]; assay set Mar. 28, 2003) | relative effectiveness in proliferation assay (words) ([1]; second set, FIG. 3) | dose of maximal response ([1]; earliest studies, FIG. 2) | relative effectiveness in proliferation assay (words) ([1]; earliest studies, FIG. 2) | maximal increase in cell proliferation ([1]; earliest studies, FIG. 2) | OD (optimal dose) ([1]; assay set Oct. 27, 2002) | further results
33mer: 33 amino acid MNTF1-F6 fragment, SEQ ID NO:1, made by solid phase synthesis; positive control in cell proliferation assays (LGTFWGDTLNCWMLSAFSRYARCLAEGHDGPTQ) [reference compound] | Effective | 0.01 µg/mL | Effective | Effective | effective at increasing the proliferation of motoneuron/neuroblastoma cells | significantly (p<0.05) stimulated proliferation over control; also recorded: nearly as well as the 10mer at low doses; also recorded: clearly superior to the 21mer |  |  |  |  |  |  | OD (optimal dose) ([1]; assay set Mar. 28, 2003, listed as 33mer GLPg, L): 10 µg/mL; OD (optimal dose) ([1]; assay set Mar. 28, 2003, listed as 33mer Rg, L): 100 µg/mL; OD (optimal dose) ([1]; assay set Oct. 27, 2002, listed as 33mer GLPg, L): 0.1 µg/mL; OD (optimal dose) ([1]; assay set Oct. 27, 2002, listed as 33mer Rg, L): 10 µg/mL; maximal increase in cell proliferation [1, 2]: 34.3%; maximal increase in cell proliferation [1, 3]: 31.7%; relative effectiveness in proliferation assay (words) ([1]; earliest studies, FIG. 2, listed as GLP grade 33mer): most biologically active; dose of maximal response [1, 2]: 0.1 µg/mL; relative effectiveness in proliferation assay (words) [1, 2]: most effective in this assay; dose of maximal response [1, 3]: 10 µg/mL; peak fold response in proliferation ([1]; second set, FIG. 3, at 10 μg/ml): 3 fold; fold increase in proliferation [1, 4]: ~3 fold; correct projections of motoneurons to muscle (mean) (rat femoral nerve; [5]): 173; incorrect projections of motoneurons to skin (mean) (rat femoral nerve; [5]): 59; correct projections of motoneurons to muscle (mean) (rat femoral nerve; [6]): 210; incorrect projections of motoneurons to skin (mean) (rat femoral nerve; [6]): 31
CWMLSAFSRYARC [13mer] |  |  | Effective |  | sufficient to increase cell proliferation of motor neuron/neuroblastoma cells |  | 0.1 µg/mL | some efficacy at the lowest dose, this effect fell off at higher doses |  |  |  |  | stimulation of VSC4.1 cell proliferation over controls [1]: ≥ 250%
Cyclized MNTF 33mer: cyclized version of the MNTF1 33-mer, SEQ ID NO:1, research grade (LGTFWGDTLNCWMLSAFSRYARCLAEGHDGPTQ; also: cyclized) |  |  |  | Limited Efficacy. | less effective |  |  |  | 0.1 µg/mL | limited efficacy | 12.9% |  | relative effectiveness in proliferation assay (words) ([1]; earliest studies, FIG. 2, listed as cyclized MNTF 33mer): very weak proliferative activity at low doses
FSRYAR [6mer] |  |  | Effective | Effective | sufficient to increase cell proliferation of motor neuron/neuroblastoma cells |  | 1 µg/mL | poorest performers; also recorded: less effectively than the others | 10 µg/mL | comparably effective | 35.1% | 10 µg/mL | fold increase in proliferation ([1]; second set, FIG. 3, at 1 μg/ml): ~2.5 fold; correct projections (rat femoral nerve; [7]): significant increases in correct projections at every dose tested; incorrect projections to skin (rat femoral nerve; [7]): marked reductions in the number of incorrect projections to skin
FSRYARCLAEG [11mer] |  |  | Effective | Effective | sufficient to increase cell proliferation of motor neuron/neuroblastoma cells |  | 1 µg/mL | poorest performers; also recorded: less effectively than the others | 10 µg/mL | comparably effective | 32.2% | 10 µg/mL | fold increase in proliferation ([1]; second set, FIG. 3, at 1 μg/ml): ~2.5 fold
MLSAFSRYAR [10mer] | Effective | 0.01 µg/mL |  |  | at least as effective the full-length MNTF 33mer | significantly (p<0.05) stimulated proliferation over control; also recorded: most active proliferative agent; also recorded: clearly superior to the 21mer |  |  |  |  |  |  | lowest concentration at which at least as effective as MNTF 33mer ([1]; in vitro): 0.01 µg/mL; increase in proliferation over controls ([1]; third set, FIG. 4, three lowest doses used): ~200%
MLSAFSRYARCLAEGHDGPTQ [21mer] | Effective | 0.1 µg/mL |  |  | sufficient to increase cell proliferation of motor neuron/neuroblastoma cells | significantly (p<0.05) stimulated proliferation over control; also recorded: about half that of the other two MNTF isoforms |  |  |  |  |  |  | 
WMLSAFS [7mer] |  |  | Effective | Effective | potent stimulator of motor neuron/neuroblastoma cells in vitro over a broad range of dosage levels |  | 100 µg/mL | most potent preparation across the whole dose range; also recorded: most active proliferative agent | 1 µg/mL | markedly less effective | 25.1% | 1 µg/mL | relative effectiveness in proliferation assay (words) ([1]; earliest studies, FIG. 2, listed as MNTF 7mer): broader active dose range than the other preparations; stimulation of VSC4.1 cell proliferation over controls [1]: 350%; fold increase in proliferation [1, 4]: ~3.5 fold; fold increase in proliferation ([1]; second set, FIG. 3, lowest dose applied): 2.5 fold
cyclized MNTF 13mer: cyclized version of the 13-mer CWMLSAFSRYARC, SEQ ID NO:6, research grade (also: cyclized) |  |  |  | Limited Efficacy. | not as effective at stimulating cell proliferation in vitro |  |  |  | 1 µg/mL | least effective of all peptides tested | 17.3% |  | effect on proliferation at higher doses ([1]; earliest studies, FIG. 2, higher doses): appeared to inhibit proliferation; relative effectiveness in proliferation assay (words) ([1]; earliest studies, FIG. 2, listed as cyclized 13mer): markedly less effective
